# From ChEMBL document CHEMBL3045976, “Synthesis of biphenyl derivatives as ACE and -amylase inhibitors” (Med Chem Res, 2013)
# Calls of active or inactive are those of the source. The rule behind the calls is not given here.
# How the values were obtained:
# [1] = target: Angiotensin-converting enzyme (Homo sapiens) (UniProt P12821); assay: Inhibition of ACE (unknown origin) using Hippuryl-His-Leu as substrate at 10 ug incubated for 10 min prior to substrate addition measured after 45 min by spectrophotometric analysis relative to control
# [2] = target: Angiotensin-converting enzyme (Homo sapiens) (UniProt P12821); assay: Inhibition of ACE (unknown origin) using Hippuryl-His-Leu as substrate at 1 to 10 ug incubated for 10 min prior to substrate addition measured after 45 min by spectrophotometric analysis relative to control
# [3] = target: Alpha amylase (Homo sapiens) (UniProt P0DUB6); assay: Inhibition of alpha-amylase (unknown origin) using starch as substrate at 100 to 500 ug incubated for 10 min prior to substrate addition measured after 15 min by DNSA method relative to control
# Chain of Alpha amylase (Homo sapiens) (P0DUB6 whole entry, looked up): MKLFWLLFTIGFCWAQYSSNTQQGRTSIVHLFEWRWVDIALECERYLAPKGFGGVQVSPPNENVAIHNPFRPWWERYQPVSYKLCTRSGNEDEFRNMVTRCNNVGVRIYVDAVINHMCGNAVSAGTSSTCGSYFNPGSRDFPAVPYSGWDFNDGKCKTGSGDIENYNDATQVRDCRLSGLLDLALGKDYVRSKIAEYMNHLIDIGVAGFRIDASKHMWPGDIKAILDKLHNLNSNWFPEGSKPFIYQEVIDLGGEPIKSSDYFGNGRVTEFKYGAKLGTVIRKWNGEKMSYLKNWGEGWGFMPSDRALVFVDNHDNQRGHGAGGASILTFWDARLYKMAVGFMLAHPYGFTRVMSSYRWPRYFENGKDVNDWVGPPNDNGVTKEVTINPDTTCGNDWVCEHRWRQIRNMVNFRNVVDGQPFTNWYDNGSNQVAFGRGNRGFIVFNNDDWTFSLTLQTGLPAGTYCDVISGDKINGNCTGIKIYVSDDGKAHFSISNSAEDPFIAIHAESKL
# Chain of Angiotensin-converting enzyme (Homo sapiens) (P12821 whole entry): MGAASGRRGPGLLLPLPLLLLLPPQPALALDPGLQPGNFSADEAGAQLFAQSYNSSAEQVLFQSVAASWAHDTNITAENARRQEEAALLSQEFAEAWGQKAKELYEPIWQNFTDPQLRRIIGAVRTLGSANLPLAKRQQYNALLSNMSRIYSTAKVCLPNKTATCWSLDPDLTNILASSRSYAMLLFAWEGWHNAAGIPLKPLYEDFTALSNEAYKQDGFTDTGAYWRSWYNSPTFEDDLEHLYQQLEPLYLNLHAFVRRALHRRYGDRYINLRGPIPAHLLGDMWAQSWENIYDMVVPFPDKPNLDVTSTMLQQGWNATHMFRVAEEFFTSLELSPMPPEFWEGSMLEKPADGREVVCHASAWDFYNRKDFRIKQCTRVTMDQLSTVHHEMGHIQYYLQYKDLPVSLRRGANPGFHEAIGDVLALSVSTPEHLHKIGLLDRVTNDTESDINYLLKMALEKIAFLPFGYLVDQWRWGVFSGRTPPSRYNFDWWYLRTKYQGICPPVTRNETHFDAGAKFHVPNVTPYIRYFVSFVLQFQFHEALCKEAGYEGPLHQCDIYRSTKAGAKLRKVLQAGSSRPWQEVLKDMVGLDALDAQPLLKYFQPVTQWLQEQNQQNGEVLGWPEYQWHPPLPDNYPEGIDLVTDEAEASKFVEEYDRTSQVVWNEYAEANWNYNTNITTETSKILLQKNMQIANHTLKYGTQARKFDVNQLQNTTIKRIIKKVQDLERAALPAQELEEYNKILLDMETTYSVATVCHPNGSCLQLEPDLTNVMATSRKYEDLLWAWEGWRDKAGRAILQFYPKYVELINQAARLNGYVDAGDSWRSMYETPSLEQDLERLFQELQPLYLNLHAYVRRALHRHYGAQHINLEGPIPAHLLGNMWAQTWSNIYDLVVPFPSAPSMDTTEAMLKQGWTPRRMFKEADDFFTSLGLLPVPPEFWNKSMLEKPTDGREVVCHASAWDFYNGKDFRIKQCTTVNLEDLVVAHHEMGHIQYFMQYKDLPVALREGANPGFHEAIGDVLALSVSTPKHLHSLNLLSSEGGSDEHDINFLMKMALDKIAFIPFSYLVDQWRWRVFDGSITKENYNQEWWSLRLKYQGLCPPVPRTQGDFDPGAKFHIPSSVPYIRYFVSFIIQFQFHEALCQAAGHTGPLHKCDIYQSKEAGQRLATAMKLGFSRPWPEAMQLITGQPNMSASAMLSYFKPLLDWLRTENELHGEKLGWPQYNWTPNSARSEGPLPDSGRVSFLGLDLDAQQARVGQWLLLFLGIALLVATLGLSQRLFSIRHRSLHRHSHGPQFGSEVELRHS
SMILES,inhibition [1],inhibition [2],inhibition [3]
CN1CCN(Cc2ccc(-c3ccccc3-c3nnn[nH]3)cc2)CC1,92%,,
OCCOCCN1CCN(Cc2ccc(-c3ccccc3-c3nnn[nH]3)cc2)CC1,,inactive,
Cc1nnc(-c2ccccc2-c2ccc(CN3C(=O)CSC3=O)cc2)o1,,inactive,inactive
O=C1CSC(=O)N1Cc1ccc(-c2ccccc2-c2nnn[nH]2)cc1,,inactive,
Cc1nnc(-c2ccccc2-c2ccc(CN3CCC(C(=O)O)CC3)cc2)o1,,inactive,inactive
Cc1nnc(-c2ccccc2-c2ccc(Cn3cncn3)cc2)o1,,inactive,inactive
Cc1nnc(-c2ccccc2-c2ccc(CN3CCOCC3)cc2)o1,,inactive,inactive
Cc1nnc(-c2ccccc2-c2ccc(CN3CCNCC3)cc2)o1,,inactive,inactive
O=C(O)C1CCN(Cc2ccc(-c3ccccc3-c3nnn[nH]3)cc2)CC1,,inactive,inactive
Cc1nnc(-c2ccccc2-c2ccc(CN3CCN(C)CC3)cc2)o1,,inactive,inactive
Cc1nnc(-c2ccccc2-c2ccc(CN3CCN(CCOCCO)CC3)cc2)o1,,inactive,inactive

# The remaining lines, values ahead:
inhibition [1],inhibition [2],inhibition [3],SMILES
83%,,,c1ccc(-c2nnn[nH]2)c(-c2ccc(CN3CCNCC3)cc2)c1
,inactive,inactive,c1ccc(-c2nnn[nH]2)c(-c2ccc(CN3CCOCC3)cc2)c1
80%,,,c1ccc(-c2nnn[nH]2)c(-c2ccc(Cn3ccnc3)cc2)c1
,inactive,inactive,Cc1nnc(-c2ccccc2-c2ccc(Cn3ccnc3)cc2)o1
80%,,,c1ccc(-c2nnn[nH]2)c(-c2ccc(Cn3cncn3)cc2)c1
